This note sets out measurements from patent publication US20160228484A1, “TOMATO POWDER-BASED COMPOSITION” (MEDIAPHARMA S.R.L., priority 2013, published 2016).

Common to all, as to type: in vivo, mouse
One test deals with TRAMP mice. Briefly: Kaplan-Meier survival of TRAMP mice fed fortified diets. Particulars: Lycopene treated, not significantly different from Control Diet (11%), P=0.384, unpublished observations. From the text: In man, early prostate tumorigenesis appears to be associated with a dysplasia that starts with proliferative inflammatory atrophy which may progress to low-grade Prostatic Intraepithelial Neoplasia (PIN), to high-grade PIN, to primary cancer, to metastatic cancer, and to hormone refractory cancer after hormonal treatment (23,24). Transgenic adenocarcinoma of the mouse prostate (TRAMP) is a model in which the progression of prostate cancer mirrors the stages of the human form, from PIN to undifferentiated, androgen independent tumor (25). Expression od the SV40 early genes driven by the prostate-specific promoter probasin leads to prostate cell transformation and all TRAMP mice develop prostate cancer spontaneously. This model, therefore, is regularly used to assess chemoprevention of prostate cancer (22).
In a recent paper (36), we reported that a tomato diet (Control Diet enriched with 10% of a “tomato powder”, whose composition is reported in Table 1), increased TRAMP mice survival.

The next test relates to IL6. Nature of the test: IL6 serum levels during different diets in TRAMP mice. The note with it: FIG. 5; diet fortified 10%; two-ways ANOVA; RED007 P<0.0001; Lycopene P=0.314. From the text:
FIG. 5: IL6 serum levels during different diets. Values represent mean±SD(n8mice).
FIG. 7: IL6 serum levels during different diets. Values represent mean ±SD(n8mice). The control diet was fortified with a 10% mixture of A and B components. The two components were mixed according to different Acomponent/Bcomponent ratios (w/w), i.e. 99.5:0.5, 98.0:2.0 (RED007 diet), and 96.0:4.0, respectively.

The next test concerns VEGF. Nature of the test: VEGF serum levels during different diets in TRAMP mice. The note with it: FIG. 4; diet fortified 10%; two-ways ANOVA; RED007 P<0.0001; Lycopene P=0.204. From the text:
FIG. 4: VEGF serum levels during different diets. Values represent mean ±SD(n8mice). […] RED007 may be also designated “Lycoprozen”. The two terms are interchangeable herein.
FIG. 6: VEGF serum levels during different diets. Values represent mean±SD(n8mice). The control diet was fortified with a 10% mixture of A and B components. The two components were mixed according to different Acomponent/Bcomponent ratios (w/w), i.e. 99.5:0.5, 98.0:2.0 (RED007 diet), and 96.0:4.0, respectively.

With `CC(C)=CCC/C(C)=C/C=C/C(C)=C/C=C/C(C)=C/C=C/C=C(C)/C=C/C=C(C)/C=C/C=C(\C)CCC=C(C)C` [Lycopene, lycopene], in the test with TRAMP mice, the survival proportion was 17%. In addition, the “IL6 serum levels compared to Control Diet” value in the test with IL6 is recorded as “did not significantly modify”. The “VEGF serum levels compared to Control Diet” value in the test with VEGF is given as “did not significantly modify”.
